# Reference: patent US10507247B2, “Optical probes for matrix metalloproteinases” (The University Court of the University of Edinburgh, priority 2015, dated 2019)
# Like-named read-outs stand apart in the source and are kept apart here. Primed or numbered codes have the meaning given here. Where no end group is shown, it is not given here. [ ]: non-standard residue; d: D form. The star is where a group is joined. 5FAM = O=C1OC2(c3ccc(O)cc3Oc3cc(O)ccc32)c2ccc(C(=O)*)cc21; PEG2′ = PEG spacer unit (glycol linker); K(MR) = not defined here; Nle = CCCC[C@H](N)C(=O)O; βAla = NCCC(=O)O
# Columns and labels:
# [1] = test system: MMP; assay: Probe specificity by target inhibition (FIG. 9); assay type: biochemical, human; conditions: probe 1 μM, 30 min, inhibitor 200 nM
# Method: Probe specificity by target inhibition for probes A and probe B. Data represents the fluorescence signal provided by the probe (1 μM) after 30 min using a multiwell plate fluorimeter at excitation/emission 485/528 nm. To validate the specificity and ability of molecular probe to detect the target enzyme, probe fluorescence (initiated by cleavage) was measured in the presence of enzyme with/without inhibitor.
# The enzyme assays were run in a 384-well format on a PCR opaque microplate (Thermo Scientific). All dilutions and reactions were prepared in MMP buffer (50 mM Tris, 10 mM CaCl2, 0.15M NaCl, 0.05% Brij-35, pH 7). Proteolytic activity was determined by calculating the fold change in fluorescence over background signal provided by the corresponding dilution of the probe and/or inhibitors with exogenous enzymes using a-multiwell plate fluorimeter (Synergy H1 Hybrid Reader, BioTek instruments Ltd) at excitation/emission 485/528 nm. Recombinant human MMPs (Catalytic domain MMP-1, -2, -3, -7, -8, -9, -10, -11, -12, -13 (Enzo Life Sciences) and Full-length MMP-2, -9, -12 and -13 (Merck/Millipore)) were used at 30 nM. Pro-MMP-13 (R & D Systems) was activated by incubating with 1 mM 4-aminophenylmercunc acetate (APMA) for 2 hrs at 37° C. […] For inhibition assays, enzyme and inhibitor were pre-incubated for 1 hr at 37° C. before the addition of molecular probe.
# [2] = test system: MMPs-1, -2, -3, -7, -8, -9, -10, -11, -12, -13, Thrombin, Plasmin and Factor Xa; assay: Enzyme specificity of the FRET branched probes with exogenous enzymes (FIG. 8); assay type: biochemical, human; conditions: probe 10 μM; MMPs 30 nM; Thrombin 5 U/ml, Plasmin 30 nM, Factor Xa 0.5 μM
# Method: (§1) FIG. 8. Enzyme specificity of the FRET branched probes A, B and C. Data represents the average fold change in fluorescence over background signal provided by probe (10 μM) with exogenous enzymes using a multiwell plate fluorimeter (Synergy H1 Hybrid Reader, BioTek instruments Ltd) at excitation/emission 485/528 nm. Recombinant human catalytic domain MMPs-1, -2, -3, -7, -8, -9, -10, -11, -12, -13 were used at 30 nM. Recombinant human Thrombin, Plasmin and Factor Xa were used at 5 U/ml, 30 nM, 0.5 μM, respectively.
# (§2) Three selected probes (A: AMF-106, B: SVC-186 B, and C: SVC-196) were evaluated in vitro in a new experiment including other members of the MMP family (MMPs-1, -2, -3, -7, -8, -9, -10, -11, -12, -13) as well as Thrombin, Plasmin and Factor Xa, and the results are shown in FIG. 8. […] The plasmin cleavage site was identified and attempts to make a resistant version replacing with D-aa in these positions were unsuccessful.
# (§3) The enzyme assays were run in a 384-well format on a PCR opaque microplate (Thermo Scientific). All dilutions and reactions were prepared in MMP buffer (50 mM Tris, 10 mM CaCl2, 0.15M NaCl, 0.05% Brij-35, pH 7). Proteolytic activity was determined by calculating the fold change in fluorescence over background signal provided by the corresponding dilution of the probe and/or inhibitors with exogenous enzymes using a-multiwell plate fluorimeter (Synergy H1 Hybrid Reader, BioTek instruments Ltd) at excitation/emission 485/528 nm. Recombinant human MMPs (Catalytic domain MMP-1, -2, -3, -7, -8, -9, -10, -11, -12, -13 (Enzo Life Sciences) and Full-length MMP-2, -9, -12 and -13 (Merck/Millipore)) were used at 30 nM. Pro-MMP-13 (R & D Systems) was activated by incubating with 1 mM 4-aminophenylmercunc acetate (APMA) for 2 hrs at 37° C. Human neutrophil elastase (Elastase Product Company, used at 2.5 ug/ml), neutrophil lysate (lysed human neutrophils), and recombinant human Thrombin (Sigma-Aldrich, used at 5 U/ml), Plasmin (Sigma-Aldrich, used at 30 nM) and Factor Xa (Sigma-Aldrich, used at 0.5 μM) were used to identify the lead molecular probe sequences. For inhibition assays, enzyme and inhibitor were pre-incubated for 1 hr at 37° C. before the addition of molecular probe.
# [3] = test system: MMP-9; assay: Enzyme assay, fold change in probe fluorescence over background with MMP-9; assay type: biochemical, human; conditions: different probe scaffolds (monomer, dendrimers); MMP-9 83 kDa
# Method: A library of probes (listed in Table 2 below) containing FAM (Carboxyfluorescein) as the fluorophore (donor) and MethylRed (MR) as the quencher (acceptor) and a variety of peptide sequences was synthesized by manual standard solid-phase Fmoc peptide chemistry (described below).
# (§4) Enzyme specificity of the lead probes with exogenous enzymes was tested using a multiwell plate fluorimeter at excitation/emission 485/528 nm (Table 3). Recombinant human catalytic domain MMPs-1, -2, -3, -7, -8, -9, -10, -11, -12, -13 were used at 30 nM. Cleavage site for each sequence is indicated in italics.
# (§5) The different compounds were also evaluated according to the fold change in fluorescent signal in presence of MMP-9 and MMP-13, and the results are shown in Table 7. From this comparison, the FRET dendrimers comprising SEQ ID NO.1 and SEQ ID NO.7 (AMF-106 and SVC-186) together with the 9Dendrimer comprising SEQ ID NO.7 (SVC-196) were chosen for further evaluation. These dendrimers are shown in FIG. 7, probe A (AMF-106), probe B (SVC-186) and probe C (SVC-196).
# as §3
# [4] = test system: MMP-13; assay: Enzyme assay, fold change in probe fluorescence over background with MMP-13; assay type: biochemical, human; conditions: different probe scaffolds (monomer, dendrimers); MMP-13 52 kDa
# Method: as §4, §5, §3
# [5] = target: T1, plasmin (Homo sapiens, UniProt P00747); assay: Enzyme kinetics of the molecular probe, plasmin; assay type: biochemical
# T1 construct: purchased Sigma-Aldrich
# T1 sequence (P00747 581-810 limits assumed): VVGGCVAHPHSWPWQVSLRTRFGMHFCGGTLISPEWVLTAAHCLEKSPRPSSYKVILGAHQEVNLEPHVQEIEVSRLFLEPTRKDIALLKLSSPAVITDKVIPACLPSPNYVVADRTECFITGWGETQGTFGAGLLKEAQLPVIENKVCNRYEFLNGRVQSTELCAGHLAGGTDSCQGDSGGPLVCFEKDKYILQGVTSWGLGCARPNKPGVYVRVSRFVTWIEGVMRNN
# T1 sequence (P00747 97-580 partner limits assumed): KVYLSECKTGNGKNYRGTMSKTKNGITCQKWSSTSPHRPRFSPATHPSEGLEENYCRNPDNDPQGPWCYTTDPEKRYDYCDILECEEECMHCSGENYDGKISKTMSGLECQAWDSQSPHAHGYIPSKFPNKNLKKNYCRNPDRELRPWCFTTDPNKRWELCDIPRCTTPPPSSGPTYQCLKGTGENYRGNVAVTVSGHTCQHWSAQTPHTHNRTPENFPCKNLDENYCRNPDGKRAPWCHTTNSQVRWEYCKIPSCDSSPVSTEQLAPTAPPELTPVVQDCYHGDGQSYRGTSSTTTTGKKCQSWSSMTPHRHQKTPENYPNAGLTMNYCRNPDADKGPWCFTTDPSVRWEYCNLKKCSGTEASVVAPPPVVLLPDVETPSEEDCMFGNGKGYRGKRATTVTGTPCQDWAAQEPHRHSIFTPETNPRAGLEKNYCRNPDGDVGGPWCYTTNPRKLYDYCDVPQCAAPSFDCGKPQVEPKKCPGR
# Method: (§6) Enzyme kinetics of the molecular probe specificity to human MMP-2, MMP-9, MMP-13 and plasmin. The kinetic constants KM and Vmax were calculated for probe A and B (Table 8 below).
# as §3, with “For inhibition assays, enzyme and inhibitor were pre-incubated for 1 hr at 37° C. before the addition of molecular probe.” left out
# [6] = target: T2, human MMP-2 (Homo sapiens, UniProt P08253); assay: Enzyme kinetics of the molecular probe, MMP-2; assay type: biochemical
# T2 sequence (P08253 110-660): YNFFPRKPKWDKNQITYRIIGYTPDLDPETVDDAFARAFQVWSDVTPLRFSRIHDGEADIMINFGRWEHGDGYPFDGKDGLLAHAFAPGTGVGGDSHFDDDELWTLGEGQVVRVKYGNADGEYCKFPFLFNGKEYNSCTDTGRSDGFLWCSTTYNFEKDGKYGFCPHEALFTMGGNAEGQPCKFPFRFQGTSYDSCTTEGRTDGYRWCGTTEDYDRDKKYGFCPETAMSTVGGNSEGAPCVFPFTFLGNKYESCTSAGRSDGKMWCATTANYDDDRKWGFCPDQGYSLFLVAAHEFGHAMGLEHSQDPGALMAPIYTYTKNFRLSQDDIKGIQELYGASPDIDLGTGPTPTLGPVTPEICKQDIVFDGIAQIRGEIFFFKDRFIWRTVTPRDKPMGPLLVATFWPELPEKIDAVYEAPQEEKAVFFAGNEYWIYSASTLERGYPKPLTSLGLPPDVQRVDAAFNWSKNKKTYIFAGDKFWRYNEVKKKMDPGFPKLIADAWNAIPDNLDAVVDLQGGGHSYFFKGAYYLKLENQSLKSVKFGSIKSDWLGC
# Method: as §6
# as §3, with “For inhibition assays, enzyme and inhibitor were pre-incubated for 1 hr at 37° C. before the addition of molecular probe.” left out
# [7] = target: T1, plasmin; assay: Susceptibility / stability of probes to plasmin; assay type: biochemical
# Method: as §1
# Also, to reduce degradation without altering the amino acid constituents we have synthesised variants including PEG units at the amino and/or carboxy termini in order to block degradation from the ends of the peptide sequence.
# as §2
# as §3, with “Human neutrophil elastase (Elastase Product Company, used at 2.5 ug/ml), neutrophil lysate (lysed human neutrophils), and recombinant human Thrombin (Sigma-Aldrich, used at 5 U/ml), Plasmin (Sigma-Aldrich, used at 30 nM) and Factor Xa (Sigma-Aldrich, used at 0.5 μM) were used to identify the lead molecular probe sequences. For inhibition assays, enzyme and inhibitor were pre-incubated for 1 hr at 37° C. before the addition of molecular probe.” left out
# [8] = target: MMP-13 (Homo sapiens, UniProt P45452); assay: Enzyme kinetics of the molecular probe, MMP-13; assay type: biochemical
# Method: as §6
# as §3, with “For inhibition assays, enzyme and inhibitor were pre-incubated for 1 hr at 37° C. before the addition of molecular probe.” left out
# [9] = target: human MMP-9 (Homo sapiens, UniProt P14780); assay: Enzyme kinetics of the molecular probe, MMP-9; assay type: biochemical
# human MMP-9, sequence (P14780 94-707): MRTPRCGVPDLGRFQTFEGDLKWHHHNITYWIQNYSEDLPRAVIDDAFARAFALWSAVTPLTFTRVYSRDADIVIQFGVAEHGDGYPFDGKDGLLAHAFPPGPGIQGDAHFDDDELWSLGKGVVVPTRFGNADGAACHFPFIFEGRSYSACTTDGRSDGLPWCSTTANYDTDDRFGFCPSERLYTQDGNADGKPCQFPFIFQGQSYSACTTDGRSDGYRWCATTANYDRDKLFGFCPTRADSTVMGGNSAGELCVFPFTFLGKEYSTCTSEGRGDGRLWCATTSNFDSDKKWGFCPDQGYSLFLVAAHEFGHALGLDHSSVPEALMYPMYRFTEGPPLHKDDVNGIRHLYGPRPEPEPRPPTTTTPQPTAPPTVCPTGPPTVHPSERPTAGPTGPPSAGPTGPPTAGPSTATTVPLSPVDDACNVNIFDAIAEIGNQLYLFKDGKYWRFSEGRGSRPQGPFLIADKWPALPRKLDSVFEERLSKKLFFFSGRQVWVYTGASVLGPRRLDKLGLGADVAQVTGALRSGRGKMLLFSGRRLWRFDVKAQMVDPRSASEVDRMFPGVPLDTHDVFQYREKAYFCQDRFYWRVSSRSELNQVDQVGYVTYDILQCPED
# Method: as §6
# as §3, with “For inhibition assays, enzyme and inhibitor were pre-incubated for 1 hr at 37° C. before the addition of molecular probe.” left out
# [10] = test system: MMP-2/9/13 in the lung; assay: Ex vivo and in vivo ovine lung and human lung tissue imaging by fCFM; conditions: lung environment
# Method: All compounds have undergone biological assessment. For stability we have assessed each compound in the presence of 0.9% NaCl (Saline) or pooled lavage fluid from patients with acute lung injury and analysed by matrix-assisted laser desorption/ionization (MALDI) or fourier transform mass spectrometry (FTMS). In vitro activation was assessed on benchtop confocal in the presence of compound with lung tissue samples. For the ex vivo and in vivo ovine lung (FIG. 11) and human lung tissue experiments (FIG. 12) each compound was assessed in a control lung segment (instilled with 2 ml PBS) or a fibrotic/cancer segment, the compound was administered to the segment of interest and this was imaged by probe based fCFM.
# [11] = test system: MMP; assay: Activation of probe variants by MMP in vitro; assay type: biochemical; conditions: additional quencher per probe element
# Method: The selectivity of the probes, together with further probes AMF-14b, SVC-030 (both defined in Table 6 below) and SVC-068 (defined in Table 4 below), to detect MMP over elastase, another proteinase relevant in lung disease, was tested and the results for all probes are shown in FIG. 2.
# Variants consisting of D-amino acids at the recognition site sequence with or without blocking PEG units were also synthesised and assessed.
# as §3
molecule,measurement,setting,value
CNC(=O)[C@@H](NC(=O)[C@H](CC(C)C)[C@H](O)C(=O)NO)C(C)(C)C [Marimastat],fluorescent intensity of probes A and B after incubation of the enzyme with inhibitor,[1],significantly reduced
FAM-PEG2-G-P-K-G-L-K-G-K(MR)-PEG2-k-PEG2-k-3 probe elements ({5FAM-PEG2′}-GPKGLKG; not fully specified (C-terminus); also: three probe elements on a scaffold) [AMF-106],selectivity for MMP-2/9,[2],better selectivity for MMP-2/9
same,"MMP-9 (83 kDa), fold change in fluorescent signal",[3],11.20
same,"MMP-13 (52 kDa), fold change in fluorescent signal",[4],34.52
same,Km,[5],0.36 µM
same,Km,[6],0.06 µM
same,stability / susceptibility to plasmin,[7],susceptible to plasmin
same,Km,[8],0.22 µM
same,Km,[9],0.53 µM
FAM-PEG2-PFGNleKβA-K(MR)-PEG2-k-PEG2-k-3 probe elements ({5FAM-PEG2′}-PFG[Nle]K[βAla]-{K(MR)-PEG2′-code k-PEG2′-code k}; reading uncertain; also: three probe elements on a scaffold) [SVC-186],selectivity for MMP-2/9,[2],better selectivity for MMP-2/9
same,"MMP-9 (83 kDa), fold change in fluorescent signal",[3],6.49
same,"MMP-13 (52 kDa), fold change in fluorescent signal",[4],26.65
same,stability / susceptibility to plasmin,[7]; listed as Probe B,plasmin resistant
same,stability / susceptibility to plasmin,[7]; listed as SVC-01-186,stable
same,activation in the presence of MMP-2/9/13 in the lung,[10],able to activate
FAM-PEG2-PFGNleKβA-K[K(MR)2]-PEG2-k-PEG2-k-3 probe elements [SVC-195],signal-to-noise ratio,[11],did not further improved
same,"MMP-9 (83 kDa), fold change in fluorescent signal",[3],4.84
same,"MMP-13 (52 kDa), fold change in fluorescent signal",[4],9.00
